Our source for the Glass transition temperature values is the NIST ThermoML archive (doi:10.1016/j.tca.2006.04.022).

Molecules are shown by their SMILES. ± gives the expanded uncertainty stated by the source.

The conditions of the data set: Adiabatic calorimetry.

Regarding `CCOS(=O)(=O)[O-].CCn1cc[n+](C)c1` [1-ethyl-3-methylimidazolium ethyl sulfate], the Glass transition temperature is -80.30 ± 0.05 °C.
